Reference: US20230270721A1, “INHIBITION OF BAX-MEDIATED CELL DEATH BY ELTROMBOPAG” (Albert Einstein College of Medicine, priority 2020, published 2023)

Key:
3T3 cells = experiment: Caspase 3/7 activation assay, ABT-263 + S63845; format: cell-based, murine; conditions: 1 µM ABT-263 and 1 µM S63845, 4 hr
Description: 3T3 cells were maintained in media identical to that of MEFs. 3T3 cells were seeded (1×10^4 cells/well) in 96-well opaque plates for 18-24 hr. The media was removed and replaced with media lacking FBS, and cells were treated with EO as a 10X stock in H2O at the indicated doses for 2 hr before addition of 10% FBS. Cells were then treated with 1 µM each of ABT-263 and S63845. Caspase 3/7 activation was measured at 4 hr by addition of the Caspase-Glo 3/7 chemiluminescence reagent in accordance with the manufacturer’s protocol (Promega). Luminescence was detected by an F200 PRO microplate reader (TECAN). Percentage caspase activation was normalized to ABT-263 + S63845 alone (100%) and untreated cells (0%). Viability assays were performed at 24 hr by addition of CellTiter-Glo according to the manufacturer’s protocol (Promega). Luminescence was detected by an F200 PRO microplate reader (TECAN). Percentage viability was normalized to untreated cells (100%).
Next, whether EO is capable of rescuing cell death in cells expressing both BAX and BAK was determined. 3T3 cells, a murine fibroblast cell line, were treated with a combination of BH3-mimetics navitoclax (ABT-263) and S63845, which only in combination cause significant cytotoxicity in fibroblast cells.

[1] = test system: platelets of C57BL/6J mice; experiment: In vivo mouse platelet experiments; conditions: co-administration: ABT-263 25 mg/kg + EO 100 mg/kg then 50 mg/kg 3 hrs later, oral gavage, 24 hours
Description: Wild type black mice strain C57BL/6J were treated with vehicle, ABT-263 (25 mg/kg, single dose), EO (100 mg/kg, then 3 hrs later 50 mg/kg), or a combination of ABT-263 and EO. EO was formulated in dH2O, and ABT-263 was formulated in 10% ethanol, 30% polyethylene glycol 400, and 60% Phosal 50 PG. Both ABT-263 and EO were administered by oral gavage. Blood samples were collected by submandibular bleed before treatment and 24 hours following treatment, and CBC was acquired. Percentage platelet protection was calculated as follows: % Platelet Protection = (100)(Px - mPABT)/(mPv - mPABT) where Px is the platelet count for a given mouse, mPv is the mean vehicle treated platelet count, and mPABT is the mean ABT-263 treated platelet count. Statistical analysis was performed using one-way ANOVA with select multiple comparisons as shown.
Finally, whether EO can rescue thrombocytopenia induced by the activity of navitoclax was evaluated in mice. The use of navitoclax is limited by on-target toxicity triggering BAK/BAX-mediated platelet apoptosis (Zhang, H. et al. Cell Death Differ 14, 943-951 (2007)). […] This EO effect is distinct from its capacity to stimulate platelet production by differentiation of the megakaryocyte precursors and progenitor cells, which requires 5 days to begin (Erickson-Miller, C. L. et al. Stem Cells 27, 424-430 (2009); Jenkins, J. M. et al. Blood 109, 4739-4741 (2007)).

BAK KO MEFs = experiment: Mitochondrial translocation of cytosolic BAX in cells; format: cell-based, mouse; conditions: BIM BH3 or 2 µM staurosporine (STS); 10 or 20 µM EO
Excerpt: FIGS. 7A, 7B, 7C, 7D, 7E, and 7F are a set of diagrams showing that eltrombopag inhibits BAX translocation and BAX-mediated apoptosis in cells. […] BAX translocation is based on antibody-based detection of BAX and mitochondrial protein TOMM20. Representative confocal micrographs from three independent biological experiments. Scale bar, 20 µm. […] Data represent ±SEM of three independent biological replicates. Two-sided t test, ****P < 0.0001; ***P < 0.001; **P < 0.01; *P < 0.05; ns, P > 0.05. […] Actin and VDAC are loading controls for cytosolic and mitochondrial fractions, respectively. FIGS. 7D and 7E show a caspase 3/7 assay of BAK-/- mouse embryonic fibroblasts (MEFs) (FIG. 7D) and BAX-/-MEFs (FIG. 7E) in response to 3 µM STS and the presence or absence of various doses of EO for 6 hr. […]
It is important to note that THPO-receptor agonist activity of EO is highly specific to the human and chimpanzee THPO-receptors, making mouse cell lines ideal for studying EO modulation of BAX-dependent activity independent of THPO-mediated effects (Erickson-Miller, C. L. et al. Stem Cells 27, 424-430 (2009)). First, mitochondrial cytochrome c release, a hallmark of BAX activation and BAX-dependent apoptosis, was evaluated. […] Next, mitochondrial translocation of cytosolic BAX upon treatment with either BIM BH3 or staurosporine (STS) in BAK KO MEFs was evaluated.

BAX in BAK KO MEFs = molecular target: T1, BAX in BAK KO MEFs (Mus musculus, UniProt Q07813); experiment: Cellular Thermal Shift Assay (CETSA); format: cell-based; conditions: 10 pM EO, 2 hours
T1 construct: endogenous in cells; host or cells: BAK KO mouse embryonic fibroblasts
T1 sequence (Q07813 whole entry): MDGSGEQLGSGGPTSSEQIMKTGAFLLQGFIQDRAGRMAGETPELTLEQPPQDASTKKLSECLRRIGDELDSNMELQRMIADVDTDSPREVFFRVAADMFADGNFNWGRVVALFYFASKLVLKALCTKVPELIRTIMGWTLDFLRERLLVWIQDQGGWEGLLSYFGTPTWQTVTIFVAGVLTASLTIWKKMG
Description: BAK KO MEFs were seeded in a 10 cm dish for 18-24 hours or until approximately 80% confluent. The media was removed and replaced with media lacking FBS, and cells were treated with 10 pM EO as a 10X stock in H2O or vehicle for 2 hours. The media was then removed, and cells were harvested using a cell scraper and washed twice with PBS. Cells were then resuspended in PBS to 6×10^6 cells/mL, and […] was transferred to PCR tubes. Cells were then heated in a Biorad C1000 Touch Thermal Cycler for 3 minutes using a temperature gradient (50, 52.1, 55.4, 59.4, 64.9, 69.2, 72.1, and 74° C.). Cells remaining at room temperature (25° C.) served as a control. All cells were lysed by three cycles of freeze-thawing using liquid nitrogen. Samples were then centrifuged at 2×10^4 g for 15 minutes. The supernatants were collected and resolved by SDS-PAGE with an N-terminal BAX antibody (Cell Signaling, 2772S). Samples were analyzed and quantified using a Li-Cor Odyssey Clx and normalized to 25° C. (100%) and 74° C.(0%).
To confirm direct engagement of BAX, Cellular Thermal Shift Assay (CETSA) was performed in BAK KO MEFs.

In the case of `CC1=NN(c2ccc(C)c(C)c2)C(=O)/C1=N\Nc1cccc(-c2cccc(C(=O)O)c2)c1O` [EO, eltrombopag], the “apoptosis mediated by caspase 3/7 activity” value (3T3 cells) is reported as “significant reduction of apoptosis”, the navitoclax-induced platelet loss [1] is reported as “markedly inhibited platelet loss to acceptable levels” and the “mitochondrial translocation of cytosolic BAX” value (BAK KO MEFs) is reported as “capable of inhibiting BAX translocation”. For the same compound, the “lowering of BAX TM (CETSA)” value (BAX in BAK KO MEFs) was 9 °C.
